Reference: patent publication US4346094A, “3-Aryl-5-isothiazolecarboxylic acids and related compounds used to lower uric acid levels” (Eli Lilly and Company, priority 1980, dated 1982)
Where two headings read alike, the source gives them in different places.

Experiments:
[1] = target: T1, xanthine oxidase (Bos taurus, UniProt P80457); experiment: in vitro xanthine oxidase assay (rate of uric acid formation from xanthine); type: biochemical
T1 construct: purchased Sigma Chemical Company, St. Louis, Mo; host or cells: milk (grade III, chromatographically purified)
T1 sequence (P80457 whole entry): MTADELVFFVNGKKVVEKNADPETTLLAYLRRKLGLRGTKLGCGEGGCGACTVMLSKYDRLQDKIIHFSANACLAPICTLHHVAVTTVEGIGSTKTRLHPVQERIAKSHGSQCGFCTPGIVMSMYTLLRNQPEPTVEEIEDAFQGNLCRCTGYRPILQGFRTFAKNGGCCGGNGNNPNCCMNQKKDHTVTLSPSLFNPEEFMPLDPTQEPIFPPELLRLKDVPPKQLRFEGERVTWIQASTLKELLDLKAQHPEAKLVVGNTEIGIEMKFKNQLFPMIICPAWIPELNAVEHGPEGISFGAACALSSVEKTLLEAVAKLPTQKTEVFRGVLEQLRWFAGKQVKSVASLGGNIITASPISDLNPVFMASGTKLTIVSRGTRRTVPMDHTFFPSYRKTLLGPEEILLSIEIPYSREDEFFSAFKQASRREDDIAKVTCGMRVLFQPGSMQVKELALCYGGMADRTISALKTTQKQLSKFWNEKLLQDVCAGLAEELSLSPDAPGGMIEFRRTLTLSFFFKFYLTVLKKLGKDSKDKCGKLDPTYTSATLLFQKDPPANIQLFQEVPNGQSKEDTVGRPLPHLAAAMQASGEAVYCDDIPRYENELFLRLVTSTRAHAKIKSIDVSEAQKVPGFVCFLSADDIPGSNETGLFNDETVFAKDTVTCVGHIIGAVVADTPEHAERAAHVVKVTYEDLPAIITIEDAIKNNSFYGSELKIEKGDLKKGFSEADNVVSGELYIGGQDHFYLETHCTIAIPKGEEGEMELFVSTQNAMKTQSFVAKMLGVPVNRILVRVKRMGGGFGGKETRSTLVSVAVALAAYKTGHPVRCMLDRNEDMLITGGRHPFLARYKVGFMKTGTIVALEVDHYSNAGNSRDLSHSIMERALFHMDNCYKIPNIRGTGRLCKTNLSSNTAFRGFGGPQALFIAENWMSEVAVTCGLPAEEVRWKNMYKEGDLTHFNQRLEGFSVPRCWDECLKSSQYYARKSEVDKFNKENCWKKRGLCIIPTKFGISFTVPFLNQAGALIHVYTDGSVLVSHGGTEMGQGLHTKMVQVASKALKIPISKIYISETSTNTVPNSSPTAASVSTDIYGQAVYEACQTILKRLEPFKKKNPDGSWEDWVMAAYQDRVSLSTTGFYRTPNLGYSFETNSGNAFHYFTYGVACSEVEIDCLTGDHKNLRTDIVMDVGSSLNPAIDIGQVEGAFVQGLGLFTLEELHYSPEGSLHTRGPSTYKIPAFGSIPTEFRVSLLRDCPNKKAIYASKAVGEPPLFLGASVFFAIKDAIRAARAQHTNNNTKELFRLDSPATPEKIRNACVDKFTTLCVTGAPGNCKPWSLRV
Protocol: Since uric acid is produced by the oxidation of, first, hypoxanthine to xanthine and, second, of xanthine to uric acid via the enzyme, xanthine oxidase, an inhibitor of xanthine oxidase in vivo would obviously decrease the uric acid concentrations in the blood.
Xanthine oxidase activity was measured at room temperature by the rate of uric acid formation from xanthine substrate. In a total volume of 1 ml., the incubation mixture contained 50 micromoles of potassium phosphate buffer at pH 7.4, 0.05 micromoles of xanthine and 0.01 units of enzyme preparation (chromatographically purified milk xanthine oxidase, grade III, obtained from Sigma Chemical Company, St. Louis, Mo.). The absorbence change at 292 nm was recorded by a Gilford recording spectrophotometer and the uric acid formed was calculated using an extinction coefficient of 12 mM^-1 Cm^-1 at 292 nm.

[2] = tested on: plasma uric acid; experiment: in vivo lowering of plasma uric acid in rats, oral (ED50); details: Rattus norvegicus, read-out: ED50 (dose which reduces plasma level of uric acid by one-half)
Protocol: (§1) All of the compounds corresponding to formula I above which applicants have prepared are active in vivo in lowering plasma uric acid levels. […] The first method, the spectrofluorometric method, was modified from the procedure of Sumi et al., Clinica. Chimica. Acta., 73, 233 (1976). Rats were sacrificed by decapitation and their blood collected into vacutainer tubes containing heparin via heparinized glass funnels. The blood was centrifuged for 8 minutes at 4000 rpm after which time the plasma was separated and diluted 1:1 with water. Plasma protein was precipitated by addition of acetic acid to a final concentration of 0.007 molar and boiling the resulting mixture for 5 minutes in Sorval tubes. Clear deproteinized plasma was obtained after centrifugation of the resulting plasma for 30 minutes at 25,000 rpm. Uric acid was assayed as follows: 0.2 ml. aliquots of the clear deproteinized plasma were mixed with 120λ of uricase (0.045 mu/ml.) and incubated for 30 minutes at 27° C. 1.0 ml. of a p-hydroxyphenylacetic acid buffer was added. Samples obtained from feeding rats or dogs serial doses of the compound under test were incubated with the above buffer solution for 30 minutes at 27° C. Fluorescence of the solution was measured in quartz tubes using an Aminco Bowman-Spectrofluorimeter having excitation of 321 nm and emission at 412 nm. Five uric acid standards from 6-30 micromolar were assayed for each test and each standard yielded a linear curve.
The second method was called the HPLC-EC Detection method. Here, blood plasma was collected from rats as described above and from dogs in heparinized syringes from the cefalic vein in the forearm and centrifuged with Sure-Sep to separate plasma. Deproteninized plasma was prepared in each instance by first diluting one volume of plasma with one volume of an internal standard solution, 4 mcg./ml., and then addition of two volumes of 5% trichloroacetic acid. Standards were added to control plasma in the range of 0-8 mcg./ml. of uric acid. Samples obtained by feeding graded doses of drug under test to dogs or rats were mixed for 30 seconds and then centrifuged in an Eppendorf microcentrifuge. Supernates were diluted 1:10 in column buffer and assayed for uric acid. Internal standards used were 3-methyluric acid for the rat samples and 3,9-dimethyluric acid for dog samples. Assays were performed as follows using a Bioanalytic Systems Inc. LC-44 analyser and an electrochemical detector system based on an Altex model 110 pump coupled with a CP-O carbon paste electrodetector. Samples for assay were put into a DuPont 834 autosampler and automatically injected into a laboratory packed stainless steel column (4.1 mm id, 1/4" od 25 cm.1) containing reverse phase packing (sperisorb. O.D. 5μ Regis Chemical Co.). The column buffers employed were 0.1 M disodium phosphate, 0.05 M citric acid and 10% methanol for rat samples; 0.1 M disodium phosphate, 10% methanol and citric acid titrated at pH 6.5 for dog samples. The same internal standards were employed as before. Retention times for uric acid, 3-methyluric acid and 3,9-dimethyluric acid were established. Uric acid levels were then calculated from peak areas by computer analysis. Table V which follows gives the oral ED50 in rats for a group of the preferred compounds of this invention (those in which the 3-position of the isothiazole ring carries a 3-trifluoromethylphenyl group). […]

[3] = oral acute toxicity in mice (LD50); details: mouse, in vivo; for LD50: oral, mice, read-out: LD50 (dose which kills one-half of the animals); for therapeutic index (LD50/ED50): oral LD50 mice / oral ED50 rats, read-out: Ratio of LD50 to ED50
Source text: The compounds represented by the above formula are also relatively non-toxic. In column 3 of Table V are listed the oral LD50 for mice in mg. per kg. for each of the compounds of column 1 (dose which kills one-half of the animals). Finally, column 4 in Table V gives the ratio of LD50 to ED50. It will be seen that the ratio of the LD50 to the ED50 is quite high, giving a substantial margin of safety for using the compounds of this invention in treating gout in mammals, particularly humans.

[4] = oral administration of ester and amides, percent inhibition in vivo
Protocol: as §1
The second method was called the HPLC-EC Detection method. Here, blood plasma was collected from rats as described above and from dogs in heparinized syringes from the cefalic vein in the forearm and centrifuged with Sure-Sep to separate plasma. Deproteninized plasma was prepared in each instance by first diluting one volume of plasma with one volume of an internal standard solution, 4 mcg./ml., and then addition of two volumes of 5% trichloroacetic acid. Standards were added to control plasma in the range of 0-8 mcg./ml. of uric acid. […] Uric acid levels were then calculated from peak areas by computer analysis. […]

[5] = milk xanthine oxidase 0.01 units, 0.05 micromoles xanthine in 1 ml, pH 7.4, room temperature, 292 nm, read-out: I50 (concentration of drug which inhibits 50% of the oxidation of xanthine to uric acid by the xanthine oxidase preparation) (converted)

| Compound | IC50 [1, 5] | ED50 [2] | LD50 [3] | IC50 [1] | therapeutic index (LD50/ED50) [3] | Percent Inhibition ([4]; oral dosage 50 mg.kg) | Percent Inhibition ([4]; oral dosage 25 mg.kg) |
| --- | --- | --- | --- | --- | --- | --- | --- |
| Nc1c(-c2cccc(C(F)(F)F)c2)nsc1C(=O)O [R=3-CF3, R^1=H, 3-(3-trifluoromethylphenyl)-4-amino-5-isothiazolecarboxylic acid] | 0.0763 µM | 17.5 mg/kg | 798 ± 66 mg/kg | – | – | – | – |
| O=C(O)c1snc(-c2cccc(C(F)(F)F)c2)c1Br [R=3-CF3, X=Br, 3-(3-trifluoromethylphenyl)-4-bromo-5-isothiazolecarboxylic acid] | – | 5.2 mg/kg | ~260 mg/kg | 0.0511 µM | ~50 | – | – |
| O=C(O)c1snc(-c2cccc(C(F)(F)F)c2)c1Cl [R=3-CF3, X=Cl, 3-(3-trifluoromethylphenyl)-4-chloro-5-isothiazolecarboxylic acid] | – | 6.4 mg/kg | 138 ± 12 mg/kg | 0.0325 µM | 21.6 | – | – |
| O=C(O)c1cc(-c2cccc(C(F)(F)F)c2)ns1 [R=3-CF3, X=H, 3-(3-trifluoromethylphenyl)-5-isothiazolecarboxylic acid] | 0.0549 µM | 15 mg/kg | 201 ± 13 mg/kg | – | 13.4 | – | – |
| O=C(O)c1snc(-c2cccc(C(F)(F)F)c2)c1O [R=3-CF3, X=OH, 3-(3-trifluoromethylphenyl)-4-hydroxy-5-isothiazolecarboxylic acid] | 0.0256 µM | 18 mg/kg | 727 ± 35 mg/kg | – | 40 | – | – |
| NC(=O)c1snc(-c2cccc(C(F)(F)F)c2)c1N [R=NH2, 3-(3-trifluoromethylphenyl)-4-amino-5-isothiazolecarboxamide] | – | – | – | – | – | 13% | – |
| CNC(=O)c1snc(-c2cccc(C(F)(F)F)c2)c1N [R=NHCH3, N-methyl 3-(3-trifluoromethylphenyl)-4-amino-5-isothiazolecarboxamide] | – | – | – | – | – | – | 32% |
| COC(=O)c1snc(-c2cccc(C(F)(F)F)c2)c1N [R=OCH3, Methyl 3-(3-trifluoromethylphenyl)-4-amino-5-isothiazolecarboxylate] | – | – | – | – | – | – | 64% |
